Counter-ions that a name gives are not always drawn.
What was measured:
[1] = target: CB1-receptor (UniProt P20272); test: binding of the pyrazoline compounds to CB1-receptors (Pharmacological Methods, Part I); design: IC50; species or system human or rat; conditions: radioligand [3H]-CP55940, read-out: IC50
Protocol: (§1) I. In-vitro Determination of Affinity to CB1/CB2-Receptors
(§2) The in-vitro determination of the affinity of the inventive 4-substituted pyrazoline compounds to CB1/CB2-Rezeptors is carried out as described in the publication of Ruth A. Ross, Heather C. Brockie et al., “Agonist-inverse agonist characterisation at CB1 and CB2 cannabinoid receptors of L-759633, L759656 and AM630”, British Journal of Pharmacology, 126, 665-672, (1999), whereby the transfected human CB1 and CB2 receptors of Receptor Biology, Inc. are used. The radioligand used for both receptors is [^3H]-CP55940. The respective parts of the description is hereby incorporated by reference and forms part of the present disclosure.
(§3) Rat Cerebellum CB1 Binding
(§4) Binding affinity to CB1 receptor was evaluated according to a modification of the method described by Govaerts et al., Eur J Pharmac Sci 23, 233-243 (2004). The respective parts of the description is hereby incorporated by reference and forms part of the present disclosure.
(§5) Briefly, cerebellum from male wistar rats (250-300 g) were carefully dissected on ice and homogenates were prepared with Potter-Helveheim in a cold 50 mM Tris-HCl solution containing 5 mM MgCl2, 1 mM EDTA and 0.25 M sucrose, pH 7.4. The suspension was centrifuged at […] for 5 minutes. The supernatants were collected and centrifuged 50,000×g for 15 minutes. The resulting pellets were then resuspended in Tris-HCl buffer without sucrose, homogenized and incubated for 15 min at 37° C. in an orbital shaker bath and centrifuged again at 50,000×g for 15 min. Pellets were weighted, resuspended in Tris-HCl buffer without sucrose, homogenized with Ultraturrax at 13,500 rpm for 3×5 seconds and alicuoted in 0.9 ml volumes in Eppendorf tubes. Alicuotes were centrifuged at 20,800×g for 5 minutes, supernatants discarded and pellets were frozen at −80° C. until use. Total protein concentration was determined using the Bio-Rad Lowry method based kit. Competitive binding experiments were performed in presence of 1 nM [^3H]-CP 55,940 in siliconized glass tubes containing 100 μg protein/tube resuspended in 1 ml final volume of 50 mM Tris-HCl, 5 mM MgCl2, 1 mM EDTA, 0.5% (w/v) bovine serum albumin, pH 7.4. Compounds were present at various concentrations and the non specific binding was determined in the presence of 10 μM HU-210. After 1 hour incubation at 30° C., the suspension was rapidly filtered through 0.5% PEI pre-treated GF/B fiber filters on a 96-well harvester and washed 3 times with 3 ml ice-cold binding buffer without bovine serum albumin. Radioactivity on filters was measured with Wallac Winspectral 1414 counter by liquid scintillation in 6 ml Ecoscint H (National Diagnostics, U.K.). Assays were made in triplicates.
(§6) Binding data were analyzed by non-linear regression with the software GraphPad Prism Version 3.03.
(§7) The binding of the pyrazoline compounds of general formula I to CB1-receptors was determined according to the method described in the section Pharmacological Methods, Part I.

[2] = target: CB1-receptor (UniProt P20272); test: as above; design: other: 10^−7 M; other: 10^−8 M; species or system human or rat
Protocol: as §1, §2, §3, §4, §5, §6, §7

Compound	IC50 [1] [nM]	Inhibition ([2]; 10^−7 M) [%]	Inhibition ([2]; 10^−8 M, in %)
CC1CCN(NC(=O)C2=NN(c3ccc(Cl)cc3Cl)[C@@H](c3ccc(Cl)cc3)[C@H]2C)CC1 (relative stereo) [Example 9, cis-5-(4-Chloro-phenyl)-1-(2,4-dichloro-phenyl)-4-methyl-4,5-dihydro-1H-pyrazole-3-carboxylic acid (4-methyl-piperidin-1-yl)-amide]	77.3	–	–
C[C@H]1C(C(=O)NN2CC3CCCC3C2)=NN(c2ccc(Cl)cc2Cl)[C@H]1c1ccc(F)cc1.Cl (relative stereo) [Example 233, cis-1-(2,4-dichlorophenyl)-5-(4-fluorophenyl)-N-(hexahydrocyclopenta[c]pyrrol-2(1H)-yl)-4-methyl-4,5-dihydro-1H-pyrazole-3-carboxamide hydrochloride]	–	43.9	27.9
C[C@@H]1C(C(=O)NN2CCCCC2)=NN(c2ccc(Cl)cc2Cl)[C@H]1c1ccc(O)cc1 (relative stereo) [Example 344, trans-1-(2,4-dichlorophenyl)-5-(4-hydroxyphenyl)-4-methyl-N-(piperidin-1-yl)-4,5-dihydro-1H-pyrazole-3-carboxamide]	–	−23.3	−27.3
C[C@@H]1C(C(=O)O)=NN(c2ccccc2Cl)[C@@H]1c1ccc(Cl)s1 (relative stereo) [Example 363, cis-1-(2-chlorophenyl)-5-(5-chlorothiophen-2-yl)-4-methyl-4,5-dihydro-1H-pyrazole-3-carboxylic acid]	–	11.3	12.2
C[C@H]1C(C(=O)O)=NN(c2ccc(Cl)cc2Cl)[C@H]1c1ccc(Br)cc1 (relative stereo) [Example 413, cis-5-(4-bromophenyl)-1-(2,4-dichlorophenyl)-4-methyl-4,5-dihydro-1H-pyrazole-3-carboxylic acid]	–	17.3	13.8
C[C@@H]1C(C(=O)NN2CCc3ccccc32)=NN(c2ccc(Cl)cc2Cl)[C@@H]1c1ccc(Br)cc1 (relative stereo) [Example 415, cis-5-(4-bromophenyl)-1-(2,4-dichlorophenyl)-N-(indolin-1-yl)-4-methyl-4,5-dihydro-1H-pyrazole-3-carboxamide]	–	79.3	32.3
CC[C@@H]1C(C(=O)NN2CCCCC2)=NN(c2ccc(Cl)cc2Cl)[C@@H]1c1ccc(Br)cc1.Cl (relative stereo) [Example 428, cis-5-(4-bromophenyl)-1-(2,4-dichlorophenyl)-4-ethyl-N-(piperidin-1-yl)-4,5-dihydro-1H-pyrazole-3-carboxamide hydrochloride]	–	42.6	28.4
C[C@@H]1C(C(=O)NN2CCCCCC2)=NN(c2ccc(Cl)cc2Cl)[C@@H]1c1ccc(F)cc1 (stereo in doubt) [Example 414, cis-N-(azepan-1-yl)-1-(2,4-dichlorophenyl)-5-(4-fluorophenyl)-4-methyl-4,5-dihydro-1H-pyrazole-3-carboxamide]	–	36.2	28.7
COc1ccc([C@@H]2[C@@H](C)C(C(=O)O)=NN2c2ccc(Cl)cc2Cl)cc1 [Example 412, (4R,5S)-1-(2,4-dichlorophenyl)-5-(4-methoxyphenyl)-4-methyl-4,5-dihydro-1H-pyrazole-3-carboxylic acid]	–	−15.4	−11.1
cis-1-(2,4-dichlorophenyl)-5-(4-hydroxyphenyl)-4-methyl-N-(piperidin-1-yl)-4,5-dihydro-1H-pyrazole-3-carboxamide [Example 343]	–	−10.1	−15.8

Other lines, results leading:

IC50 [1] [nM]	Inhibition ([2]; 10^−7 M) [%]	Inhibition ([2]; 10^−8 M, in %)	Compound
200	–	–	C[C@H]1C(C(=O)N2CCN(C3CCCCC3)CC2)=NN(c2ccc(Cl)cc2Cl)[C@H]1c1ccc(Cl)cc1 (relative stereo) [Example 5, cis-[5-(4-Chloro-phenyl)-1-(2,4-dichloro-phenyl)-4-methyl-4,5-dihydro-1H-pyrazol-3-yl]-(4-cyclohexyl-piperazin-1-yl)-methanone]
100	–	–	C[C@H]1C(C(=O)NN2CCc3ccccc32)=NN(c2ccc(Cl)cc2Cl)[C@H]1c1ccc(Cl)cc1 (relative stereo) [Example 15, cis-5-(4-Chloro-phenyl)-1-(2,4-dichloro-phenyl)-4-methyl-4,5-dihydro-1H-pyrazole-3-carboxylic acid (2,3-dihydro-indol-1-yl)-amide]
> 1000	–	–	C[C@H]1C(C(=O)NN2CCCCC2)=NN(c2ccc(Cl)cc2Cl)[C@@H]1c1ccc(Br)s1 (relative stereo) [Example 71, trans-5-(5-Bromo-thiophen-2-yl)-1-(2,4-dichloro-phenyl)-4-methyl-4,5-dihydro-1H-pyrazole-3-carboxylic acid piperidin-1-ylamide]
180	–	–	C[C@H]1C(C(=O)NN2CCCCC2)=NN(c2ccc(Cl)cc2Cl)[C@H]1c1cc(Br)cs1 (relative stereo) [Example 75, cis-5-(4-Bromo-thiophen-2-yl)-1-(2,4-dichloro-phenyl)-4-methyl-4,5-dihydro-1H-pyrazole-3-carboxylic acid piperidin-1-ylamide]
31.6	–	–	C[C@H]1C(C(=O)NN2CC3CCCC3C2)=NN(c2ccc(Cl)cc2Cl)[C@H]1c1ccc(Cl)cc1 (relative stereo) [Example 108, cis-5-(4-Chlorophenyl)-1-(2,4-dichlorophenyl)-4-methyl-4,5-dihydro-1H-pyrazole-3-carboxylic acid (hexahydrocyclopenta[c]pyrrol-2-yl)-amide hydrochloride]
–	25.9	5.4	C[C@H]1C(C(=O)NN2CCc3ccccc32)=NN(c2ccc(Cl)cc2Cl)[C@H]1c1ccc(F)cc1 (relative stereo) [Example 235, cis-1-(2,4-dichlorophenyl)-5-(4-fluorophenyl)-N-(indolin-1-yl)-4-methyl-4,5-dihydro-1H-pyrazole-3-carboxamide]
–	38.5	14.8	C[C@@H]1C(C(=O)NN2CCCCC2)=NN(c2ccc(Cl)cc2Cl)[C@@H]1c1ccc(F)cc1.Cl (relative stereo) [Example 417, cis-1-(2,4-dichlorophenyl)-5-(4-fluorophenyl)-4-methyl-N-(piperidin-1-yl)-4,5-dihydro-1H-pyrazole-3-carboxamide hydrochloride]
–	31.2	38	CCOC(=O)C1=NN(c2ccc(Cl)cc2Cl)[C@@H](c2ccccc2)[C@@H]1C (relative stereo) [Example 421, trans-ethyl 1-(2,4-dichlorophenyl)-4-methyl-5-phenyl-4,5-dihydro-1H-pyrazole-3-carboxylate]
–	30.4	2.8	C[C@@H]1C(C(=O)NN2CCCCC2)=NN(c2ccc(Cl)cc2Cl)[C@@H]1c1ccc(Cl)cc1 [Example 420, (+)-cis-5-(4-chlorophenyl)-1-(2,4-dichlorophenyl)-4-methyl-N-(piperidin-1-yl)-4,5-dihydro-1H-pyrazole-3-carboxamide]
–	−11	−10.1	CC1C(C(=O)O)=NN(c2ccc(Cl)cc2Cl)C1c1ccccc1 (stereo not shown) [Example 429, 1-(2,4-dichlorophenyl)-4-methyl-5-phenyl-4,5-dihydro-1H-pyrazole-3-carboxylic acid]
